Structures can show the parent of a compound that is named as a salt. Where two headings read alike, the source gives them in different places.
Legend:
MOLM13 [1] = assay: Cell growth inhibitory activities on cultured human leukemia cells MOLM-13 (WST-1); type: cell-based; conditions: 3 days culture
MV4-11 = assay: Cell growth inhibitory test MV4-11 (WST-1); type: cell-based, human; conditions: MV4-11 cells, 3 days culture
How it was run: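 MV4-11 leukemia cells (3×10^3/well, DMEM + 10% FCS) were cultured 3 days with compound in DMSO at 5% CO2. Growth read by WST-1 absorbance at 450 nm (ref 650 nm), normalized to untreated (100%) and cell-free (0%) wells; IC50 from multiple concentrations.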

MOLM13 [2] = assay: Tumor growth inhibitory activities in nude mice xenograft model inoculated with human leukemia cells MOLM13; type: in vivo; conditions: Mus musculus, MOLM-13, po, 50 mg/kg orally once a day, read-out: TGIR (%) (measurement date)
Protocol: Pharmacological Test Example 5
Tumor Growth Inhibitory Activities in Nude Mice Xenograft Model Inoculated with Human Leukemia Cells
Human leukemia cells MOLM13 (subdivided from Hayashibara Biochemical Laboratories, Inc.) were subcutaneously transplanted into nude mice. […] The test compound suspended or dissolved in 0.5% methylcellulose was orally administered at a dose of 0.1 ml per 10 g body weight once a day for 9 days. For the control group, only vehicle was administered.
The tumor growth inhibition rate (TGIR) was calculated as follows:
The tumor growth inhibition rate (TGIR)=(1−TX/CX)×100
wherein CX represents the volume of tumor at day X for the control group when the tumor volume at the day of the start of the administration (day 1) was presumed to be 1; and TX represents the volume of tumor at day X for test compound administration groups.

MOLM13 [3] = assay: Cell growth inhibitory activity using MTT method (MOLM13); type: cell-based, human; conditions: MOLM13 cells
Protocol: Pharmacological Test Example 3
Measurement of Cell Growth Inhibitory Activity Using MTT Method
Human leukemia cell line MOLM13 (subdivided from Hayashibara Biochemical Laboratories, Inc.) was cultured in an RPMI medium containing 10% fetal calf serum (purchased from Asahi Techno Glass Corporation) within a 5% carbon dioxide incubator until the cell density reached 50 to 90% of the maximum cell density. These cells were seeded into wells, containing an RPMI medium containing 10% fetal calf serum, in a 96-well flat bottom plate in an amount of […] per well. The amount of the solution of the medium in each well was brought to 100 μl, and a test compound was added thereto to 500 ng, 100 ng, 20 ng, and 4 ng per ml. After culture within an incubator for 72 hr, 10 μl of a 5 mg/ml MTT (3-(4,5-dimethylthiazol-2-yl)-2,5-diphenyl tetrazolium bromide) solution (purchased from SIGMA) was added to the medium, and a reaction was allowed to proceed for 4 hr. Thereafter, 100 μl of a 0.04 N hydrochloric acid-isopropanol solution was added to completely dissolve the resultant MTT formazan crystal. After the dissolution, absorbance at 550 nm was measured using 620 nm as a reference wavelength with a microplate reader (DIGISCAN) (It is regarded that, in the MTT method, the viable cell count is reflected, and linearity is observed in a cell count per well range of 5×10^5 to 2×10^2 cells). After 72 hr, the absorbance of only the medium free from cells was subtracted from the absorbance of the well without the addition of the test compound to determine a value which was presumed to be 100%. On the other hand, the absorbance with the addition of the compound was expressed in terms of % growth.

| SMILES | IC50 (MOLM13 [1]; Homo sapiens, MOLM-13, 72 h) [nM] | IC50 (MV4-11; Homo sapiens, MV4-11, 72 h) [nM] | IC50 (MOLM13 [3]; Homo sapiens, MOLM-13, 72 h) [nM] | IC50 (MOLM13 [1]) [nM] | IC50 (MV4-11) [nM] | IC50 (MOLM13 [3]; 72 hr) [nM] | inhibition in vivo at 50 mg/kg (MOLM13 [2]; 240 h, day 10) [%] | inhibition in vivo at 50 mg/kg (MOLM13 [2]; 216 h, day 9) [%] |
| --- | --- | --- | --- | --- | --- | --- | --- | --- |
| COc1cc2nccc(Oc3ccc(NC(=O)NC4CC(C)CC(C)(C)C4)cc3Cl)c2cc1OC (stereo not drawn) [Compound 13, 1-[3-Chloro-4-(6,7-dimethoxy-quinolin-4-yloxy)-phenyl]-3-(3,3,5-trimethyl-cyclohexyl)-urea] | 21 | 18 | 3.87 | – | – | – | 84.8 | – |
| COc1cc2nccc(Oc3ccc(NC(=O)NC4CC(C)CC(C)(C)C4)cc3F)c2cc1OC (stereo not drawn) [Compound 15, 1-[4-(6,7-Dimethoxy-quinolin-4-yloxy)-3-fluoro-phenyl]-3-(3,3,5-trimethyl-cyclohexyl)-urea] | 22 | 11 | 9.5 | – | – | – | 89.4 | – |
| COc1cc2c(Oc3ccc(NC(=O)NCCC4CCCCC4)c(F)c3)ccnc2cc1OCCN1CCCCC1 [Compound 64, 1-(2-Cyclohexyl-ethyl)-3-{2-fluoro-4-[6-methoxy-7-(2-piperidin-1-yl-ethoxy)-quinolin-4-yloxy]-phenyl}-urea] | 19 | 13 | 195 | – | – | – | – | – |
| COc1cc2c(Oc3ccc(NC(=O)NCCC4CCCC4)c(F)c3)ccnc2cc1OCCN1CCCCC1 [Compound 65, 1-(2-Cyclopentyl-ethyl)-3-{2-fluoro-4-[6-methoxy-7-(2-piperidin-1-yl-ethoxy)-quinolin-4-yloxy]-phenyl}-urea] | 9 | 4 | 24.6 | – | – | – | – | – |
| COc1cc2c(Oc3ccc(NC(=O)NCCC(C)(C)C)c(F)c3)ccnc2cc1OCCN1CCOCC1 [Compound 67, 1-(3,3-Dimethyl-butyl)-3-{2-fluoro-4-[6-methoxy-7-(2-morpholin-4-yl-ethoxy)-quinolin-4-yloxy]-phenyl}-urea] | – | – | – | 4 | 2 | 16.1 | – | – |
| COc1cc2c(Oc3ccc(NC(=O)NCCC4CCCCC4)c(F)c3)ccnc2cc1OCCN1CCOCC1 [Compound 72, 1-(2-Cyclohexyl-ethyl)-3-{2-fluoro-4-[6-methoxy-7-(2-morpholin-4-yl-ethoxy)-quinolin-4-yloxy]-phenyl}-urea] | 8 | 3 | 54.5 | – | – | – | – | – |
| COc1cc2c(Oc3ccc(NC(=O)NCCC(C)C)c(F)c3)ccnc2cc1OCCN1CCOCC1 [Compound 73, 1-{2-Fluoro-4-[6-methoxy-7-(2-morpholin-4-yl-ethoxy)-quinolin-4-yloxy]-phenyl}-3-(3-methyl-butyl)-urea] | 20 | 6 | 21.5 | – | – | – | – | – |
| COc1cc2c(Oc3ccc(NC(=O)NCCC(C)(C)C)c(F)c3)ccnc2cc1OCCCN1CCN(C)CC1 [Compound 76, 1-(3,3-Dimethyl-butyl)-3-(2-fluoro-4-{6-methoxy-7-[3-(4-methyl-piperazin-1-yl)-propoxy]-quinolin-4-yloxy}-phenyl)-urea] | – | – | – | – | – | – | – | 34.3 |
| COc1cc2c(Oc3ccc(NC(=O)NCCC(C)(C)C)cc3Cl)ccnc2cc1OCCCN1CCN(C)CC1 [Compound 77, 1-(3,3-Dimethyl-butyl)-3-(3-chloro-4-{6-methoxy-7-[3-(4-methyl-piperazin-1-yl)-propoxy]-quinolin-4-yloxy}-phenyl)-urea] | – | – | – | – | – | – | – | 70.4 |

More lines, main results first:

| IC50 (MOLM13 [1]; Homo sapiens, MOLM-13, 72 h) [nM] | IC50 (MV4-11; Homo sapiens, MV4-11, 72 h) [nM] | IC50 (MOLM13 [3]; Homo sapiens, MOLM-13, 72 h) [nM] | IC50 (MOLM13 [1]) [nM] | IC50 (MV4-11) [nM] | IC50 (MOLM13 [3]; 72 hr) [nM] | SMILES | inhibition in vivo at 50 mg/kg (MOLM13 [2]; 240 h, day 10) [%] | inhibition in vivo at 50 mg/kg (MOLM13 [2]; 216 h, day 9) [%] |
| --- | --- | --- | --- | --- | --- | --- | --- | --- |
| 6 | 5 | 5.37 | – | – | – | COc1cc2nccc(Oc3ccc(NC(=O)NC4CCCC(C)(C)C4)cc3Cl)c2cc1OC (stereo not drawn) [Compound 12, 1-[3-Chloro-4-(6,7-dimethoxy-quinolin-4-yloxy)-phenyl]-3-(3,3-dimethyl-cyclohexyl)-urea] | 93.7 | – |
| 3 | 2 | 5.13 | – | – | – | COc1cc2nccc(Oc3ccc(NC(=O)NC4CCCC(C)(C)C4)cc3F)c2cc1OC (stereo not drawn) [Compound 14, 1-[4-(6,7-Dimethoxy-quinolin-4-yloxy)-3-fluoro-phenyl]-3-(3,3-dimethyl-cyclohexyl)-urea] | 96.1 | – |
| 1 | < 1 | 13.3 | – | – | – | COc1cc2nccc(Oc3ccc(NC(=O)NCCC(C)(C)C)cc3)c2cc1OCCN1CCOCC1 [Compound 68, 1-(3,3-Dimethyl-butyl)-3-{4-[7-methoxy-6-(2-morpholin-4-yl-ethoxy)-quinolin-4-yloxy]-phenyl}-urea] | – | – |
| 8 | 2 | 17.7 | – | – | – | COc1cc2c(Oc3ccc(NC(=O)NC4CCCC(C)(C)C4)c(F)c3)ccnc2cc1OCCN1CCOCC1 (stereo not drawn) [Compound 69, 1-(3,3-Dimethyl-cyclohexyl)-3-{2-fluoro-4-[6-methoxy-7-(2-morpholin-4-yl-ethoxy)-quinolin-4-yloxy]-phenyl}-urea] | – | – |
| 3 | 2 | 29.6 | – | – | – | COc1cc2c(Oc3ccc(NC(=O)NCCC(C)(C)C)cc3Cl)ccnc2cc1OCCN1CC(C)OC(C)C1 (stereo not drawn) [Compound 70, 1-(3-Chloro-4-{7-[2-(2,6-dimethyl-morpholin-4-yl)-ethoxy]-6-methoxy-quinolin-4-yloxy}-phenyl)-3-(3,3-dimethyl-butyl)-urea] | – | – |
| < 1 | < 1 | – | – | – | – | COc1cc2c(Oc3ccc(NC(=O)NCCC(C)(C)C)cc3)ccnc2cc1OCCCN1CCN(C)CC1 [Compound 75, 1-(3,3-Dimethyl-butyl)-3-(4-{6-methoxy-7-[3-(4-methyl-piperazin-1-yl)-propoxy]-quinolin-4-yloxy}-phenyl)-urea hydrochloride] | – | 94.1 |
